Key:
[1] = DRUGMATRIX: Sigma2 radioligand binding (ligand: [3H] Ifenprodil); format: cell membranes, Rattus norvegicus, Wistar, Brain, Membrane; details: Not Active = under 50% inhibition at 10 µM
[2] = target: T1, Alpha-1B adrenergic receptor (Rattus norvegicus, UniProt P15823); assay: DRUGMATRIX: Alpha-1B adrenergic receptor radioligand binding (ligand: prazosin); format: cell membranes, Wistar, Liver, Membrane; details: Not Active = under 50% inhibition at 10 µM
T1 sequence (P15823 whole entry): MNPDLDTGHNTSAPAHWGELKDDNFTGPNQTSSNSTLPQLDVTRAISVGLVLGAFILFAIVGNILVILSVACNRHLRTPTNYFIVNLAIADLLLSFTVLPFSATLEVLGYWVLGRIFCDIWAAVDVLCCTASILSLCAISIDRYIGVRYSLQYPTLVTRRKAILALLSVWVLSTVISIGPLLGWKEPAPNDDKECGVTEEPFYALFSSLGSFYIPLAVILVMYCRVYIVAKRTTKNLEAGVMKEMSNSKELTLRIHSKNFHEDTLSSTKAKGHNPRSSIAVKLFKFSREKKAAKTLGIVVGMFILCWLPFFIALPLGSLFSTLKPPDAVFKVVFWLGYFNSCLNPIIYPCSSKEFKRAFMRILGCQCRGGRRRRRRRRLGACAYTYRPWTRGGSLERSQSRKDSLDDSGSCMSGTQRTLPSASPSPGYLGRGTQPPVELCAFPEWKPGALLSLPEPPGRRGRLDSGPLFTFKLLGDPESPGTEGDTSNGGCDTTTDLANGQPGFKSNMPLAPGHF

[3] = DRUGMATRIX: Glutamate, NMDA, Phencyclidine radioligand binding (ligand: [3H] TCP); format: cell membranes, Rattus norvegicus, Wistar, Cerebral cortex, Membrane; details: Not Active = under 50% inhibition at 10 µM
[4] = DRUGMATRIX: Phosphodiesterase PDE3 enzyme inhibition (substrate: [3H]cAMP + cAMP); format: tissue-based, Homo sapiens; details: platelet; Not Active = under 50% inhibition at 10 µM
[5] = target: Carbonic anhydrase 2 (Homo sapiens, UniProt P00918); assay: DRUGMATRIX: Carbonic Anhydrase II enzyme inhibition (substrate: 4-Nitrophenyl acetate (4-NPA)); format: tissue-based; details: erythrocyte; Not Active = under 50% inhibition at 10 µM
[6] = target: T2, Polyunsaturated fatty acid lipoxygenase ALOX15 (Oryctolagus cuniculus, UniProt P12530); assay: biochemical; format: tissue-based, Reticulocytes;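 note: inhibition of 15-lipoxygenase enzyme activity measured with linoleic acid as the substrate; in other assays of this panel Not Active means under 50% inhibition at 10 µM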
T2 sequence (P12530 whole entry): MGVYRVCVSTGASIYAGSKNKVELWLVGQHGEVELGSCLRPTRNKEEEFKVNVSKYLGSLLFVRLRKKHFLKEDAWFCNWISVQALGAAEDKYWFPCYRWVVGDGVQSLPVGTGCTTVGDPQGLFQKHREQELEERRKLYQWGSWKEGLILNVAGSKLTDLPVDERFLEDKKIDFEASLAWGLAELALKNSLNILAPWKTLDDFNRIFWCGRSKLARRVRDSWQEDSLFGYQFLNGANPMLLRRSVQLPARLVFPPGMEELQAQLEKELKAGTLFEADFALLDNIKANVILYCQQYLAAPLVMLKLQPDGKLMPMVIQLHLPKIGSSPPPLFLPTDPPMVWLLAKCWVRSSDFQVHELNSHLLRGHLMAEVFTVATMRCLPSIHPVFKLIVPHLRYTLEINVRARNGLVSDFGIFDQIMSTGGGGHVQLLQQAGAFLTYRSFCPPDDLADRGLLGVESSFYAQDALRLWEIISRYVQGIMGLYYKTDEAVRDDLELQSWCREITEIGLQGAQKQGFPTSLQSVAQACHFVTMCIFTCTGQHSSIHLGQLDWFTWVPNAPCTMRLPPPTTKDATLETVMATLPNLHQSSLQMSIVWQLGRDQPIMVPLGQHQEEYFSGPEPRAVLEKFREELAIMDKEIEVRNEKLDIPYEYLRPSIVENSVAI

SMILES	IC50 [1]	Ki [1]	IC50 [2]	IC50 [3]	Ki [3]	IC50 [4]	Ki [4]	IC50 [5]	IC50 ([6]; read-out: IC50) [µM]	IC50 ([1]; read-out: IC50) [nM]	Ki ([1]; read-out: Ki) [nM]	IC50 ([6]; reticulocytes)	IC50 ([3]; read-out: IC50) [nM]	Ki ([3]; read-out: Ki) [nM]
Cc1c(C)c2c(c(C)c1O)CCC(C)(CN1CCN(c3cc(N4CCCC4)nc(N4CCCC4)n3)CC1)O2 (centres undefined)	Not Active	Not Active	Not Active	Not Active	Not Active	Not Active	Not Active	Not Active	5.67					
COc1ccc(CCN(C)CCCC(C#N)(c2ccc(OC)c(OC)c2)C(C)C)cc1OC (centres undefined)				Not Active	Not Active	Not Active	Not Active	Not Active		2820	1740	Not Active		
CC(C)Cc1ccc([C@@H](C)C(=O)O)cc1 [(R)-IBUPROPHEN]	Not Active	Not Active	Not Active	Not Active	Not Active	Not Active	Not Active	Not Active				Not Active		
CN(C)CCOC(c1ccccc1)c1ccccc1 [DIPHENHYDRAMINE]								Not Active				Not Active		
Clc1ccc(COC(Cn2ccnc2)c2ccc(Cl)cc2Cl)cc1 (centres undefined) [ECONAZOLE]								Not Active				Not Active		
CCN(CC)CCOc1ccc(/C(=C(/Cl)c2ccccc2)c2ccccc2)cc1 [ENCLOMIPHENE]								Not Active				Not Active		
Fc1ccc(C(c2ccc(F)cc2)N2CCN(C/C=C/c3ccccc3)CC2)cc1 [FLUNARIZINE]								Not Active				Not Active		
CNCCC(Oc1ccc(C(F)(F)F)cc1)c1ccccc1 (centres undefined) [FLUOXETINE]								Not Active				Not Active		
Cc1ccc(NC(=O)c2ccc(CN3CCN(C)CC3)cc2)cc1Nc1nccc(-c2cccnc2)n1 [IMATINIB]												Not Active		
CC(C)Oc1ccc2c(=O)c(-c3ccccc3)coc2c1 [IPRIFLAVONE]	Not Active	Not Active	Not Active	Not Active	Not Active	Not Active	Not Active	Not Active				Not Active		
CC(C)NCC(O)c1ccc(O)c(O)c1 (centres undefined) [ISOPROTERENOL]	Not Active	Not Active	Not Active	Not Active	Not Active	Not Active	Not Active	Not Active	1.77					
CNC1(c2ccccc2Cl)CCCCC1=O (centres undefined) [KETAMINE]	Not Active	Not Active	Not Active			Not Active	Not Active	Not Active				Not Active	1010	684
N#Cc1ccc(C(c2ccc(C#N)cc2)n2cncn2)cc1 [LETROZOLE]	Not Active	Not Active	Not Active	Not Active	Not Active	Not Active	Not Active	Not Active				Not Active		
CCN1CCC[C@H]1CNC(=O)c1cc(S(N)(=O)=O)ccc1OC [LEVOSULPIRIDE]	Not Active	Not Active	Not Active	Not Active	Not Active	Not Active	Not Active					Not Active		
CCN(CC)CC(=O)Nc1c(C)cccc1C [LIDOCAINE]	Not Active	Not Active	Not Active	Not Active	Not Active	Not Active	Not Active	Not Active				Not Active		
O=C1Nc2ccc(Cl)cc2C(c2ccccc2Cl)=NC1O (centres undefined) [LORAZEPAM]	Not Active	Not Active	Not Active	Not Active	Not Active	Not Active	Not Active	Not Active				Not Active		
CO[C@@H]1[C@@H](OC)[C@H](C)[C@@](O)(CC(=O)O)O[C@H]1[C@H](C)[C@H]1O[C@@]2(CC[C@@](C)([C@H]3CC[C@@](C)([C@@H]4O[C@@H]([C@H]5O[C@](C)(O)[C@H](C)C[C@@H]5C)C[C@@H]4O[C@@H]4C[C@H](OC)[C@@H](OC)[C@H](C)O4)O3)O2)C[C@H](O)[C@H]1C [MADURAMICIN ACID]	Not Active	Not Active		Not Active	Not Active	Not Active	Not Active	Not Active				Not Active		
COc1c2occc2cc2ccc(=O)oc12 [METHOXSALEN]	Not Active	Not Active	Not Active	Not Active	Not Active	Not Active	Not Active	Not Active				Not Active		
C[C@H]1C[C@@H]2[C@H]([C@@H](O)C[C@@]3(C)[C@H]2CC[C@]3(O)C(=O)CO)[C@@]2(C)C=CC(=O)C=C12 [METHYLPREDNISOLONE]	Not Active	Not Active	Not Active	Not Active	Not Active	Not Active	Not Active	Not Active				Not Active		
Cc1cccc(C)c1OCC(C)N (centres undefined) [MEXILETINE]	Not Active	Not Active	Not Active	Not Active	Not Active	Not Active	Not Active	Not Active				Not Active		
Nc1cc(N2CCCCC2)nc(N)[n+]1[O-] [MINOXIDIL]	Not Active	Not Active	Not Active	Not Active	Not Active	Not Active	Not Active	Not Active				Not Active		
CO[C@H]1/C=C/O[C@@]2(C)Oc3c(C)c(O)c4c(O)c(c(/C=N/N5CCN(C6CCCC6)CC5)c(O)c4c3C2=O)NC(=O)/C(C)=C\C=C\[C@H](C)[C@H](O)[C@@H](C)[C@@H](O)[C@@H](C)[C@H](OC(C)=O)[C@@H]1C [RIFAPENTINE]	Not Active	Not Active	Not Active	Not Active	Not Active	Not Active	Not Active	Not Active				Not Active		
CCCCOc1cc(CC2CNC(=O)N2)ccc1OC (centres undefined) [RO-201724]	Not Active	Not Active	Not Active	Not Active	Not Active	Not Active	Not Active	Not Active				Not Active		
CC[C@@H](C(=O)[C@@H](C)[C@@H](O)[C@H](C)[C@@H]1O[C@@H]([C@@H](CC)C(=O)O)CC[C@@H]1C)[C@H]1O[C@]2(C=C[C@@H](O)[C@]3(CC[C@@](C)([C@H]4CC[C@](O)(CC)[C@H](C)O4)O3)O2)[C@H](C)C[C@@H]1C [SALINOMYCIN]	Not Active	Not Active	Not Active	Not Active	Not Active	Not Active	Not Active	Not Active				Not Active		
O=C(Oc1ccccc1C(=O)O)c1ccccc1O [SALSALATE]	Not Active	Not Active	Not Active	Not Active	Not Active	Not Active	Not Active	Not Active				Not Active		
O=C(O)c1cn(-c2ccc(F)cc2)c2cc(N3CCNCC3)c(F)cc2c1=O [SARAFLOXACIN]	Not Active	Not Active	Not Active	Not Active	Not Active	Not Active	Not Active	Not Active				Not Active		
CN[C@H]1CC[C@@H](c2ccc(Cl)c(Cl)c2)c2ccccc21 [SERTRALINE]								Not Active				Not Active		
CC(C)NCC(O)c1ccc(NS(C)(=O)=O)cc1 (centres undefined) [SOTALOL]	Not Active	Not Active	Not Active	Not Active	Not Active	Not Active	Not Active	Not Active				Not Active		
